Each structure is given as a SMILES string.

This note sets out measurements from ChEMBL document CHEMBL5150067 (J Med Chem, 2022).

Data set [1] can be described thus: Inhibition of Hedgehog-signalling dependent purmorphamine induced osteoblast differentiation in mouse C3H 10T1/2 cells assessed as residual activity by measuring ALP expression at 10 uM incubated for 96 hrs by CDP-Star luminogenic substrate based assay relative to control. The format is functional.
Data set [2] is described as follows: Inhibition of Hedgehog-signalling dependent purmorphamine induced osteoblast differentiation in mouse C3H 10T1/2 cells assessed as reduction in ALP expression incubated for 96 hrs by CDP-Star luminogenic substrate based assay. Particulars: C3H 10T1/2, 96 h; call rule not given here. The format is functional, cell-based.
The target of data set [3] is T1, Aryl hydrocarbon receptor (Mus musculus, UniProt P30561).
T1 sequence (P30561 whole entry): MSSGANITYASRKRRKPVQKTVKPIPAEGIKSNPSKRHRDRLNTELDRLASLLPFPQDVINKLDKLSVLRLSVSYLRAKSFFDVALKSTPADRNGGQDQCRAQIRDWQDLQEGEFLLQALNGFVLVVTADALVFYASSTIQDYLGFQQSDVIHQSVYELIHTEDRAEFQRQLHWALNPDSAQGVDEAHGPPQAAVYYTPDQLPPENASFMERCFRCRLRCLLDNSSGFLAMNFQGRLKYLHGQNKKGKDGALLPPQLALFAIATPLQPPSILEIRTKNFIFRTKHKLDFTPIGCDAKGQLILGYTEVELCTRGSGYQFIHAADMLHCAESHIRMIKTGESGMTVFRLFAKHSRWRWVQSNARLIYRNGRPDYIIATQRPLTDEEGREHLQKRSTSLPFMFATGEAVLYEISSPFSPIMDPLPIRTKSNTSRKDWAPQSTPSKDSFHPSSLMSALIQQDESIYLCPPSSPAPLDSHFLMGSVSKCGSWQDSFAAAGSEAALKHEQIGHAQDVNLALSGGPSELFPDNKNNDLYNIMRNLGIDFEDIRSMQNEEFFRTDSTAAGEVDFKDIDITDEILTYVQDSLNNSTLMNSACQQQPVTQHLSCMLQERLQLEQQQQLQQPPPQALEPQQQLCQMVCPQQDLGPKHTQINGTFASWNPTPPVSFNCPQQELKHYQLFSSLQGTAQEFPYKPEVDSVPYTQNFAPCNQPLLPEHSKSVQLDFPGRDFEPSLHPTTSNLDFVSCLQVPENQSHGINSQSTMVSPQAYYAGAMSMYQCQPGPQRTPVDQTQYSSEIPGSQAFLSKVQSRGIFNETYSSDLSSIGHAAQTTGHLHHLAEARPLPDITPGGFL
In words: Activation of AhR in purmorphamine-treated mouse C3H 10T1/2 cells assessed as upregulation of Cyp1B1 mRNA levels measured after 96 hrs by RT-qPCR analysis. In kind it is cell-based. As to conditions: c3h 10t1/2, 96 h, DDE = dose-dependent effect, dose 0.001-1 nM.

For data set [4], the target named is T1, Aryl hydrocarbon receptor. The data set is described as follows: Activation of AhR in purmorphamine-treated mouse C3H 10T1/2 cells assessed as translocation of AhR from cytoplasm to nucleus at 1 nM incubated for 24 hrs by immunostaining based analysis. In kind it is cell-based. As to conditions: c3h 10t1/2, 24 h, 0.001 µM.

For the molecule `O=C1c2ccc(Br)cc2C[C@H]2c3ccccc3CCN12`, the Activity in data set [1] stood at 44.2%. The IC50 in data set [2] worked out at 4.2 nM.
`O=C1c2ccc(Cl)c(F)c2C[C@H]2c3ccccc3CCN12`: in data set [1], the Activity is given as 67.2%.
For `Cc1ccc2c(c1)C[C@H]1c3ccccc3CCN1C2=O`, the Activity in data set [1] came out at 93.2%.
In the case of `COc1ccc2c(c1)C[C@H]1c3ccccc3CCN1C2=O`, the Activity in data set [1] is reported as 114%.
Consider `O=C1c2cc(Cl)cc(Cl)c2C[C@H]2c3ccccc3CCN12`, for which the Activity in data set [1] was determined as 53.2%.
For the molecule `O=C1c2ccc(Cl)cc2C[C@H]2c3ccccc3CCN12`, in data set [1], the Activity is reported as 30.4%. Further, the IC50 in data set [2] was 1.2 nM.
As for `O=C1c2ccc(I)cc2C[C@H]2c3ccccc3CCN12`, the Activity in data set [1] is recorded as 57.8%.
The same measure, in the same setting: under `CC(C)c1ccc2c(c1)C[C@H]1c3ccccc3CCN1C2=O` stands 90.1%.
Regarding `O=C1c2ccc(C(F)(F)F)cc2C[C@H]2c3ccccc3CCN12`, the Activity in data set [1] is recorded as 33.1%. Besides, the IC50 in data set [2] stood at 0.7 nM.
In the case of `O=C1c2ccc(Cl)c(Cl)c2C[C@H]2c3ccccc3CCN12`, in data set [1], the Activity was determined as 36%. The IC50 in data set [2] turned out to be 1.1 nM.
Consider `O=C1c2cc(I)c(Cl)cc2C[C@H]2c3ccccc3CCN12`, for which the Activity in data set [1] is recorded as 30.7%. The IC50 in data set [2] is 0.004 nM.
`O=C1c2ccc(F)cc2C[C@H]2c3ccccc3CCN12`: the Activity in data set [1] was 61.2%.
On to `O=C1c2ccccc2C[C@H]2c3ccccc3CCN12`, for which the Activity in data set [1] is given as 100%.
Turning to `O=C1c2cc(Br)c(Cl)cc2C[C@H]2c3ccccc3CCN12`, the Activity entry in data set [3] is on record as “Dde”; in data set [4], “Active”.
Turning to `O=C1c2ccccc2C[C@H]2c3ccccc3CCCN12`, in data set [1], the Activity was determined as 134%.
Still for that read-out and setting: then `COc1cc2c(cc1OC)C(=O)N1CCc3cc(OC)c(OC)cc3[C@@H]1C2`, with 55.2%; and `O=C1c2cccc(Cl)c2C[C@H]2c3ccccc3CCN12`, with 53%.
For `COc1cc2c(cc1F)CCN1C(=O)c3ccccc3C[C@@H]21`, the Activity in data set [1] turned out to be 127%.
Consider `O=C1c2ccc(Cl)cc2C[C@@H]2c3ccccc3CCN12`, for which the Activity in data set [1] is on record as 27.4%. The IC50 in data set [2] stood at 850 nM.
As for `COc1cc2c(cc1OC)[C@@H]1Cc3ccccc3C(=O)N1CC2`, in data set [1], the Activity is given as 96.5%.
Regarding `O=C1c2cc(Br)c(Cl)c(Br)c2C[C@H]2c3ccccc3CCN12`, the Activity in data set [1] is 27.9%. Also, the concentration for half-maximal inhibition (IC50) in data set [2] was 0.36 nM.
For `COc1cc2c(cc1Cl)C[C@H]1c3ccccc3CCN1C2=O`, in that order: 13.4% and 0.038 nM.
Regarding `O=C1c2ccccc2C[C@H]2c3ccccc3CN12`, the Activity in data set [1] worked out at 29.2%.
Same read-out and setting: then `O=C1c2ccccc2C[C@H]2c3ccc(Cl)cc3CCN12`, with 87%.
